Experimental data reported in patent EP3287436B1, “COMPOUNDS AND COMPOSITIONS FOR USE IN THE TREATMENT OF BCAT1-MEDIATED DISEASES” (Ergon Pharmaceuticals LLC, priority 2016, dated 2018).

Tests used:
[1] = target: T1, recombinant human BCAT1 (Homo sapiens, UniProt P54687); assay: Inhibition of BCAT1 enzymatic activity (NADH consumption, coupled leucine dehydrogenase assay); format: biochemical; conditions: for remaining activity at 0.001 µM: compound concentration 1 nM; for remaining activity at 0.01 µM: compound concentration 10 nM; for remaining activity at 0.1 µM: compound concentration 100 nM; for IC50: inhibition of the enzymatic activity of BCAT1, range stated for compounds 2, 7 and 8 together
T1 construct: purchased Abcam
T1 sequence (P54687 1-386): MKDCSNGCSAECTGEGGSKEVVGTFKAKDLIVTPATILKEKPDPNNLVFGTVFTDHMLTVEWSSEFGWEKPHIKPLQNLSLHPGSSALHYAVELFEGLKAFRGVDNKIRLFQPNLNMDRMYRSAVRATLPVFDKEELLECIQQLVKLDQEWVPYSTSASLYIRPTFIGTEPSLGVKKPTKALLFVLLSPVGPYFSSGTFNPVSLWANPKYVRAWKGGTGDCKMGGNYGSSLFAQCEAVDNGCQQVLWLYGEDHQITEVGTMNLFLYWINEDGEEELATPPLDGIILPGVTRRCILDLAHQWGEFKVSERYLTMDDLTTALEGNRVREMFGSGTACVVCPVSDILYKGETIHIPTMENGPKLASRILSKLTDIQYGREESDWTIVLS
Protocol: Inhibition of BCAT1 enzymatic activity by compounds 2. 7 and 8. The ability of the compounds as disclosed herein to inhibit BCAT1 enzymatic activity was confirmed spectrophotometrically. In this experiment, 0.2 to 0.5 µg of recombinant human BCAT1 from Abcam was added to 95 µL of a reaction buffer containing […] 5'-phosphate (PLP), 50 mM ammonium sulfate, 0.05 mM NADH, 5mM DTT, 5mM a-ketoglutarate, 10 mM leucine, and 0.95 U leucine dehydrogenase (EMD Chemicals) and various concentrations of compounds 2, 7 and 8. Addition of BCAT1 to the reaction mixture led to the consumption of NADH, which was measured fluorometrically (ex:330-370 nm; em:450 nm). The rate of change of fluorescence was then estimated over of period of 10 min (10 cycles; 1 cycle/min). The assay was performed in triplicate in a 96-well plate. In Table 1, the results were expressed as % Control Enzymatic Activity, which is defined as the BCAT1 activity observed in the reaction mixture in the absence of an inhibitor. […]

[2] = test system: TGF-β1-stimulated human fibroblasts; assay: Inhibition of collagen I production/secretion (ELISA of conditioned media); format: cell-based; conditions: for concentration at which collagen I secretion is completely inhibited: Table 2; for concentration at which collagen I secretion is inhibited: summary of Table 3; for factor of increase of the collagen inhibitory activity: relative to compound 7
Protocol: In vitro fibrosis is assessed by measuring collagen synthesis after treatment of fibroblast cells with a profibrotic stimuli such as TGF-β1 or bleomycin. Collagen secretion into the media can be quantified in conditioned media using an appropriate ELISA kit.
Confluent monolayers of human fibroblasts, plated onto duplicate 35 mm dishes, were pretreated with various concentrations of compounds 2, 6, and 7 for 30 min followed by stimulation of the cells with 7 ng/mL TGF-β1 for 48 hrs. At the end of the experiment, conditioned media were collected and assessed for the presence of secreted collagen I, whereas cells were collected and lysed. Collagen I secretion was quantified using an ELISA kit from R&D Systems per the manufacturer's instructions and expressed as arbitrary absorbance units per µg of cell lysate. In Table 2, results are shown as % Control Collagen Production, defined as the amount of collagen I secreted per µg of cell lysate from fibroblast cultures stimulated with TGF-β1 in the absence of an inhibitor. […]
Confluent monolayers of human fibroblasts, plated onto duplicate 35 mm dishes, were pretreated with various concentrations of compounds 28 and 29 and Control Collagen Production determined according to the protocol set out in Example 5. In Table 3, results are shown as % Control Collagen Production, defined as the amount of collagen I secreted per µg of cell lysate from fibroblast cultures stimulated with TGF-β1 in the absence of an inhibitor. […]

[3] = control = BCAT1 activity in the absence of an inhibitor
[4] = compound concentration 2 nM (as printed in Table 2), 30 min pretreatment, 7 ng/mL TGF-β1 for 48 hrs
[5] = compound concentration 5 nM (as printed in Table 2), 30 min pretreatment, 7 ng/mL TGF-β1 for 48 hrs
[6] = compound concentration 10 nM (as printed in Table 2), 30 min pretreatment, 7 ng/mL TGF-β1 for 48 hrs

| SMILES | remaining activity at 0.001 µM [1, 3] | remaining activity at 0.01 µM [1, 3] | remaining activity at 0.1 µM [1, 3] | IC50 [1] | concentration at which collagen I secretion is completely inhibited [2] | % Control Collagen Production [2, 4] | % Control Collagen Production [2, 5] | % Control Collagen Production [2, 6] | concentration at which collagen I secretion is inhibited [2] | factor of increase of the collagen inhibitory activity [2] | also measured |
| --- | --- | --- | --- | --- | --- | --- | --- | --- | --- | --- | --- |
| CC(=O)C(C)CC(Cc1ccccc1)C(=O)O (centres unmarked) [Compound 2, 2-benzyl-4-methyl-5-oxohexanoic acid] | 86% | 71% | 28% | 0.5 to 50 nM | 5 to 10 mM | 111% | 4% | – | – | – | – |
| CC(CCC(=O)O)C(=O)c1ccccc1 (centres unmarked) [Compound 6, 4-methyl-5-oxo-5-phenylpentanoic acid] | – | – | – | – | 5 to 10 mM | 105% | 77% | 2% | – | – | – |
| CC(=O)C(CCC(=O)O)c1ccccc1 (centres unmarked) [Compound 7, 5-oxo-4-phenylhexanoic acid] | 67% | 0% | 0% | 0.5 to 50 nM | 5 to 10 mM | 150% | 41% | 2% | 5 to 10 mM | – | – |
| CC(=O)C(C)CC(CCC#N)C(=O)O (centres unmarked) [Compound 8, 2-(2-cyanoethyl)-4-methyl-5-oxohexanoic acid] | – | 23% | 16% | 0.5 to 50 nM | – | – | – | – | – | – | remaining activity at 0.0005 µM ([1]; compound concentration 0.5 nM, control = BCAT1 activity in the absence of an inhibitor): 47% |
| O=C(O)CCC(C(=O)c1ccccc1)c1ccccc1 (centres unmarked) [Compound 28, 5-oxo-4,5-diphenylpentanoic acid] | – | – | – | – | – | – | – | – | 2 mM | 2-5 | % Control Collagen Production ([2]; compound concentration 1 mM (Table 3), protocol of Example 5): 121%; % Control Collagen Production ([2]; compound concentration 2 mM (Table 3), protocol of Example 5): 18%; % Control Collagen Production ([2]; compound concentration 5 mM (Table 3), protocol of Example 5): 0%; % Control Collagen Production ([2]; compound concentration 10 mM (Table 3), protocol of Example 5): 0% |
| O=C(O)CCC(C(=O)c1ccc(Br)cc1)c1ccccc1 (centres unmarked) [Compound 29, 5-(4-bromophenyl)-5-oxo-4-phenylpentanoic acid] | – | – | – | – | – | – | – | – | 0.1 mM | 100 | % Control Collagen Production ([2]; compound concentration 0.01 mM (Table 3), protocol of Example 5): 88%; % Control Collagen Production ([2]; compound concentration 0.05 mM (Table 3), protocol of Example 5): 71%; % Control Collagen Production ([2]; compound concentration 0.1 mM (Table 3), protocol of Example 5): 8% |
